Data published in patent US11878008B2, “Composition for preventing or treating atopic dermatitis” (AMOREPACIFIC CORPORATION, priority 2017, dated 2024).
“Also recorded” adds a separate entry of the source.

Key:
[1] = cited from earlier work
[2] = C57BL/6, mouse, in vivo, 2 h
Description: As described above, AMG 517, a representative reference drug as a TRPV1 antagonist, and the compound of Formula 1 of the present invention were tested for the increase in body temperature during transdermal administration.

[3] = rats; cited from earlier work
[4] = rats, oral dose of 3 mg/kg; cited from earlier work
[5] = Change in body temperature after oral administration in mice; assay type: in vivo, Balb/c mice; conditions: for change in body temperature, dose dependence: up to 4 hours, AMG 517 0.03, 0.1, 0.3 mg/kg, compound of Formula 1 3, 10, 30 mg/kg, FIGS. 2A, 2B
Description: Meanwhile, when the same drug was orally administered, a concentration-dependent increase in body temperature due to TRPV1 antagonism was observed as expected (see FIGS. 2A and 2B).

[6] = Change in body temperature in healthy volunteers after percutaneous administration; assay type: in vivo, human; conditions: percutaneous application to back skin, 7 to 30 days
Description: The composition of Example 1 including the compound of Formula 1 was percutaneously applied to healthy volunteers other than the patients with atopic dermatitis to check a change in body temperature.
The 24 healthy adult volunteers were divided into three groups, and the volunteers in each of the groups were then randomly allocated into a test group of 6 volunteers (Example 1) and a placebo group of 2 volunteers (Comparative Example 1). The same clinician applied the composition onto the volunteers' back skins at a dose of 5, 15, 50 mg per 5 g every morning according to a predetermined administration method. In this case, the composition was applied for 7, 15, 30 days with a size of 25×40 cm and an area of 1,000 cm^2.
A range of the body temperatures measured for the 24 volunteers in a clinical trial period was in a range of 35.4 to 37.3° C. The results of the changes in body temperatures from the baseline before the drug administration in each of the groups are as listed in the following Table 13.

[7] = Change in body temperature in healthy volunteers after oral administration; assay type: in vivo, human; conditions: oral 5 mg or 10 mg once a day for 8 days; healthy adult volunteers; FIGS. 6A, 6B
Description: Ten healthy adult volunteers were divided into two groups, and the compound of Formula 1 was orally administered to the volunteers in each of the groups at a dose of 5 mg or 10 mg once a day for 8 days. Thereafter, a placebo was administered to the two volunteers in each of the groups, and the body temperatures were measured for 14 days. Then, the mean body temperature of the volunteers and a change in body temperature were determined.

Row | SMILES | concentration dependence of hyperthermia ([1]; oral administration for treatment of dental pain/toothache) | body temperature increased to ([1]; oral, group administered a dose of 25 mg) | increase in body temperature [2] | effective concentration to maximize analgesic efficacy [3] | body temperature increase [4] | change in body temperature at lowest dose ([5]; 0.03 mg/kg) | change in body temperature, dose dependence [5] | clinically significant findings associated with changes in body temperature [6] | body temperature change, dose dependence [7]
1 | CC(=O)Nc1nc2c(Oc3cc(-c4ccc(C(F)(F)F)cc4)ncn3)cccc2s1 [AMG 517] | concentration-dependent side effect of hyperthermia; also recorded: increased body temperature, which was proportional to a serum AMG 517 concentration | 39.9 °C | ~1.59 °C | less than 0.3 mg/kg | about 1.3 °C | significantly increased body temperature | increased body temperature in a dose-dependent manner | – | –
2 | CCCc1nc(C(F)(F)F)ccc1/C=C/C(=O)N[C@H](C)c1cc(F)c(NS(C)(=O)=O)c(F)c1 [compound of Formula 1, (R)-N-[1-(3,5-difluoro-4-methanesulfonylamino-phenyl)-ethyl]-3-(2-propyl-6-trifluoromethyl-pyridin-3-yl)-acrylamide] | – | – | ~0.84 °C | – | – | – | increased body temperature in a dose-dependent manner | such an increase in body temperature was not observed | increased the body temperature in a dose-dependent manner; also recorded: increased body temperature (hyperthermia) were caused in a concentration-dependent manner
